≈ marks a conversion by molar mass, not a printed value. Calls of active or inactive are those of the source. The calls are words filed in the database; no cut-off is given here.
How the values were obtained:
[1] = biological target: T1, Nitric oxide synthase, inducible (Mus musculus) (UniProt P29477); test: Inhibition of iNOS in Mus musculus (mouse) RAW264.7 cells assessed as inhibition of LPS-induced nitrite production up to 25 ug/ml incubated for 30 min prior to LPS challenge measured after 24 hr by Griess assay relative to vehicle-treated control; type: cell-based
T1 sequence (whole entry): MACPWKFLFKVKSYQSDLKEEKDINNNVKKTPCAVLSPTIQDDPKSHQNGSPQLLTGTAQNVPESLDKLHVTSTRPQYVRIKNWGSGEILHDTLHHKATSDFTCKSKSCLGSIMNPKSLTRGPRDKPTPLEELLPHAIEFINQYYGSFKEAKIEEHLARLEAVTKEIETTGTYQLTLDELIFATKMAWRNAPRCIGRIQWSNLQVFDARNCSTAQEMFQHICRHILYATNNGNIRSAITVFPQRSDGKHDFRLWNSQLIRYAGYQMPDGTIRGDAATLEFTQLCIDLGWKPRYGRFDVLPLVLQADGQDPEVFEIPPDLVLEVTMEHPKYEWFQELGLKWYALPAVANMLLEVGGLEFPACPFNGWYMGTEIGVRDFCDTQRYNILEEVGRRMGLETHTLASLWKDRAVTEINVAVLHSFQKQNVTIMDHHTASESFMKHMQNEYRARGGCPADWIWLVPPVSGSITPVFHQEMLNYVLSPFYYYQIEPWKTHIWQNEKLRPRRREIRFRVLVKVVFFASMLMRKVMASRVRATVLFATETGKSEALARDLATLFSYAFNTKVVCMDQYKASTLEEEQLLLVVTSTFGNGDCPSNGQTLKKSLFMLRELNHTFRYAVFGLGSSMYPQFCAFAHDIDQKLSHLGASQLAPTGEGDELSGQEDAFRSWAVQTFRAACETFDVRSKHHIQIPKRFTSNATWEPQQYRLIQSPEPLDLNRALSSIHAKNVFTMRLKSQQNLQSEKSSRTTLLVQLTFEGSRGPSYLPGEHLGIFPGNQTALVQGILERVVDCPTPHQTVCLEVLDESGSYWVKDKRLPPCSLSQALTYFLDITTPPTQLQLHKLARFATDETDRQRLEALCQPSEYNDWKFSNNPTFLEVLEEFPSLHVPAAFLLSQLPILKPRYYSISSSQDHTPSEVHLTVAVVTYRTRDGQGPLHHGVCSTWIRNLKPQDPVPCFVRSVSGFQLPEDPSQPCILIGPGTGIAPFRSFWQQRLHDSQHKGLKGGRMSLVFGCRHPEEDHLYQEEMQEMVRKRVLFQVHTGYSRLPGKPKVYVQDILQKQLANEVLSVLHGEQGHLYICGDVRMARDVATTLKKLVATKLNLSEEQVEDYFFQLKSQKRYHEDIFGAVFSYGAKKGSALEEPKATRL

RAW264.7 = test: Cytotoxicity against Mus musculus (mouse) RAW264.7 cells up to 25 ug/ml; type: cell-based
HL-60 [2] = test: Antioxidant activity in PMA-stimulated Homo sapiens (human) HL60 cells assessed as inhibition of intracellular ROS generation incubated for 30 min prior to PMA stimulation measured after 30 min by DCFH-DA assay; type: functional, cell-based
HL-60 [3] = test: Cytotoxicity against Homo sapiens (human) HL60 cells up to 25 ug/ml; type: cell-based
Vero = test: Cytotoxicity against Chlorocebus aethiops (African green monkey) Vero cells assessed as cell viability up to 25 ug/ml after 48 hr by neutral red assay; type: cell-based; details: chlorocebus sabaeus
[4] = Cytotoxicity against Sus scrofa (pig) LLC-PK11 cells assessed as cell viability up to 25 ug/ml after 48 hr by neutral red assay; type: cell-based; details: llc-pk11, 48 h
SK-MEL = test: Cytotoxicity against Homo sapiens (human) SK-MEL cells assessed as cell viability up to 25 ug/ml after 48 hr by neutral red assay; type: functional, cell-based
KB = test: Cytotoxicity against Homo sapiens (human) KB cells assessed as cell viability up to 25 ug/ml after 48 hr by neutral red assay; type: functional, cell-based
BT-549 = test: Cytotoxicity against Homo sapiens (human) BT549 cells assessed as cell viability up to 25 ug/ml after 48 hr by neutral red assay; type: functional, cell-based
Candida albicans [5] = test: Antifungal activity against Candida albicans NRRL Y-12983 after 24 hr by NCCLS broth microdilution method; type: functional; details: NRRL Y-12983, 24 h
Candida parapsilosis = test: Antifungal activity against Candida parapsilosis NRRL Y-12696 after 24 hr by NCCLS broth microdilution method; type: functional; details: Lodderomyces parapsilosis, NRRL Y-12696, 24 h
Pichia kudriavzevii = test: Antifungal activity against Pichia kudriavzevii NRRL Y-7179 after 24 hr by NCCLS broth microdilution method; type: functional; details: NRRL Y-7179, 24 h
Candida tropicalis [6] = test: Antifungal activity against Candida tropicalis NRRL Y-12968 after 24 hr by NCCLS broth microdilution method; type: functional; details: NRRL Y-12968, 24 h
Cyberlindnera jadinii = test: Antifungal activity against Cyberlindnera jadinii NRRL Y-900 after 24 hr by NCCLS broth microdilution method; type: functional; details: Williopsis jadinii, NRRL Y-900, 24 h
Candida albicans [7] = test: Antifungal activity against Candida albicans ATCC 90028 after 24 hr by NCCLS broth microdilution method; type: functional; details: ATCC 90028, 24 h
Candida albicans [8] = test: Antifungal activity against Candida albicans clinical isolate after 24 hr by NCCLS broth microdilution method; type: functional
Candida tropicalis [9] = test: Antifungal activity against Candida tropicalis NRRL Y-12968 at 2000 ug/ml by agar diffusion method; type: functional; details: read-out: IZ
Candida albicans [10] = test: Antifungal activity against Candida albicans clinical isolate at 2000 ug/ml by agar diffusion method; type: functional; details: read-out: IZ
Transcription factor Sp1 = Transcription factor Sp1 (Homo sapiens, UniProt P08047); test: Inhibition of Sp1 (unknown origin) up to 25 ug/ml by luciferase reporter gene assay
[11] = Inhibition of PMA-induced NFkappaB activity in Homo sapiens (human) SW1353 cells incubated for 30 min followed by PMA induction for 8 hr by luciferase reporter gene assay; type: cell-based
SK-OV-3 = test: Cytotoxicity against Homo sapiens (human) SKOV3 cells assessed as cell viability up to 25 ug/ml after 48 hr by neutral red assay; type: functional, cell-based
HL-60 [12] = test: Cytotoxicity against Homo sapiens (human) HL60 cells; type: cell-based
Nakaseomyces glabratus = test: Antifungal activity against Candida glabrata clinical isolate after 24 hr by NCCLS broth microdilution method; type: functional
SW1353 = test: Inhibition of PMA-induced NFkappaB activity in Homo sapiens (human) SW1353 cells up to 25 ug/ml incubated for 30 min followed by PMA induction for 8 hr by luciferase reporter gene assay; type: cell-based
[13] = biological target: T2, Nitric oxide synthase, inducible (Mus musculus, UniProt P29477); test: Inhibition of iNOS in Mus musculus (mouse) RAW264.7 cells assessed as inhibition of LPS-induced nitrite production incubated for 30 min prior to LPS challenge measured after 24 hr by Griess assay; type: cell-based
T2 sequence (P29477 whole entry): T1 sequence (whole entry)

Chain of Transcription factor Sp1 (P08047 whole entry): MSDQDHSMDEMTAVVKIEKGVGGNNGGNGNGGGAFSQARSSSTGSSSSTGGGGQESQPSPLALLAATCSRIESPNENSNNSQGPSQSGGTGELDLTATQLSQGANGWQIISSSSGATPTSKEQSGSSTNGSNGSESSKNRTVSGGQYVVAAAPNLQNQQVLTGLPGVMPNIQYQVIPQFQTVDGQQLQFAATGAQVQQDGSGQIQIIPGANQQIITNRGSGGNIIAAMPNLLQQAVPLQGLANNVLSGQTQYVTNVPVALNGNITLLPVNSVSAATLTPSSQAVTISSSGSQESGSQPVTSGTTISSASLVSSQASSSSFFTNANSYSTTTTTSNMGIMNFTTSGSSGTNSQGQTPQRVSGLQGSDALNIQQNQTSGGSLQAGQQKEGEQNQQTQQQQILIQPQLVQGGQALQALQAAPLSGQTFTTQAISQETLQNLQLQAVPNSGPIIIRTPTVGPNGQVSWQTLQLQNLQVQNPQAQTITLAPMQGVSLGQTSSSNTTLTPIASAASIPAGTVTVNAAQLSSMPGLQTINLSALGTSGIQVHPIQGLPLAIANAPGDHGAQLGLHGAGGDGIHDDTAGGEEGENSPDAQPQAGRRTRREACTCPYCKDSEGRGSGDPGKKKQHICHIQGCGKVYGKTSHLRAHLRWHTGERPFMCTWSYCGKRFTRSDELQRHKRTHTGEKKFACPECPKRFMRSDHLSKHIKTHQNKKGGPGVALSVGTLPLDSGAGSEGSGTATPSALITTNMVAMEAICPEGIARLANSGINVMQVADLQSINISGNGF

O=C(N/N=C/c1ccc(F)cc1)c1ccc(F)cc1
inhibition [1]: inactive
Activity (RAW264.7): Non-toxic
IC50 (HL-60 [2]): 20 mg/L (≈ 76.9 µM)
Activity (HL-60 [3]): Non-toxic
Activity (Vero): Not Active
Activity [4]: Not Active
Activity (SK-MEL): inactive
Activity (KB): inactive
Activity (BT-549): inactive
MIC (Candida albicans [5]): 500 mg/L (≈ 1920 µM)
MIC (Candida parapsilosis): 500 mg/L (≈ 1920 µM)
MIC (Pichia kudriavzevii): 500 mg/L (≈ 1920 µM)
MIC (Candida tropicalis [6]): 500 mg/L (≈ 1920 µM)
MIC (Cyberlindnera jadinii): 500 mg/L (≈ 1920 µM)
MIC (Candida albicans [7]): 500 mg/L (≈ 1920 µM)
MIC (Candida albicans [8]): 250 mg/L (≈ 961 µM)
zone of inhibition at 2000 µg/mL (Candida tropicalis [9]): 9 mm
zone of inhibition at 2000 µg/mL (Candida albicans [10]): 9 mm
inhibition (INH) (Transcription factor Sp1): Not Active
IC50 [11]: 15 mg/L (≈ 57.6 µM)
Activity (SK-OV-3): inactive

COc1ccc(/C=N/NC(=O)c2ccc(F)cc2)cc1
inhibition [1]: inactive
Activity (RAW264.7): Non-toxic
IC50 (HL-60 [2]): 2.5 mg/L (≈ 9.18 µM)
IC50 (HL-60 [12]): 20 mg/L (≈ 73.5 µM)
Activity (Vero): Not Active
Activity [4]: Not Active
Activity (SK-MEL): inactive
Activity (KB): inactive
Activity (BT-549): inactive
MIC (Candida albicans [5]): 500 mg/L (≈ 1840 µM)
MIC (Nakaseomyces glabratus): 250 mg/L (≈ 918 µM)
MIC (Candida parapsilosis): 500 mg/L (≈ 1840 µM)
MIC (Pichia kudriavzevii): 500 mg/L (≈ 1840 µM)
MIC (Candida tropicalis [6]): 1000 mg/L (≈ 3670 µM)
MIC (Cyberlindnera jadinii): 500 mg/L (≈ 1840 µM)
MIC (Candida albicans [7]): 500 mg/L (≈ 1840 µM)
zone of inhibition at 2000 µg/mL (Candida tropicalis [9]): 9 mm
zone of inhibition at 2000 µg/mL (Candida albicans [10]): 9 mm
inhibition (INH) (Transcription factor Sp1): Not Active
inhibition (SW1353): inactive
Activity (SK-OV-3): inactive

COc1ccc(/C=N/NC(=O)c2ccc(F)cc2)cc1O
Activity (RAW264.7): Non-toxic
IC50 (HL-60 [2]): 0.9 mg/L (≈ 3.12 µM)
Activity (HL-60 [3]): Non-toxic
Activity (Vero): Not Active
Activity [4]: Not Active
Activity (SK-MEL): inactive
Activity (KB): inactive
Activity (BT-549): inactive
MIC (Candida albicans [5]): 500 mg/L (≈ 1730 µM)
MIC (Nakaseomyces glabratus): 250 mg/L (≈ 867 µM)
MIC (Candida parapsilosis): 500 mg/L (≈ 1730 µM)
MIC (Pichia kudriavzevii): 500 mg/L (≈ 1730 µM)
MIC (Candida tropicalis [6]): 250 mg/L (≈ 867 µM)
MIC (Cyberlindnera jadinii): 500 mg/L (≈ 1730 µM)
MIC (Candida albicans [7]): 500 mg/L (≈ 1730 µM)
zone of inhibition at 2000 µg/mL (Candida tropicalis [9]): 9 mm
zone of inhibition at 2000 µg/mL (Candida albicans [10]): 9 mm
inhibition (INH) (Transcription factor Sp1): Not Active
inhibition (SW1353): inactive
Activity (SK-OV-3): inactive
IC50 [13]: 76.3 µM

Cc1c(C)c2c(c(C)c1O)CCC(C)(C(=O)O)O2 (centres undefined) [TROLOX]
IC50 (HL-60 [2]): 0.3 mg/L (≈ 1.2 µM)
